In US20050090505A1, “Methods of reducing risk of infection from pathogens” (priority 2003, published 2005) one finds melting point data, which are given here for eight molecules.

Where a name gives a salt, the structure may show the parent alone.

The melting point is the temperature, or range, at which the solid turns liquid. Take `N=C(NCCCCCCCCCCN)NC(=O)c1nc(Cl)c(N)nc1N` (as salt: hydrochloride) [compound 19487, N-(10-aminodecyl)-N′-(3,5-diamino-6-chloropyrazine-2-carbonyl)-guanidine dihydrochloride]: the melting point is 168 to 170 °C.

With `N=C(N)NCCCCCCCCNC(=N)NC(=O)c1nc(Cl)c(N)nc1N` (as salt: hydrochloride) [compound 19604, N-{8-[N′-(3,5-diamino-6-chloropyrazine-2-carbonyl)guanidino]octyl}-guanidine dihydrochloride], the melting point was in the range of 130 to 132 °C.

Take `N=C(N)NCCCCCCCCCCNC(=N)NC(=O)c1nc(Cl)c(N)nc1N` (as salt: hydrochloride) [compound 23608, N-{10-[N′-(3,5-diamino-6-chloropyrazine-2-carbonyl)guanidino]-decyl}guanidine dihydrochloride]: the melting point was in the range of 156 to 158 °C.

`N=C(NCCCCCCCCCCCCN)NC(=O)c1nc(Cl)c(N)nc1N` (as salt: hydrochloride) [compound 23609, N-(12-aminododecyl)-N′-(3,5-diamino-6-chloropyrazine-2-carbonyl)-guanidine dihydrochloride] gave a melting point of 235 to 237 °C.

Take `N=C(NCCCCCCCCCCCN)NC(=O)c1nc(Cl)c(N)nc1N` (as salt: hydrochloride) [compound 23682, N-(11-aminoundecyl)-N′-(3,5-diamino-6-chloropyrazine-2-carbonyl)guanidine dihydrochloride]: the melting point fell in the range of 220 to 222 °C.

On to `N=C(N)NCCCCCCCCCCCCNC(=N)NC(=O)c1nc(Cl)c(N)nc1N` (as salt: hydrochloride) [compound 23683, N-{12-[N′-(3,5-diamino-6-chloropyrazine-2-carbonyl)guanidino]dodecyl)guanidine dihydrochloride], for which the melting point lay in the range of 145 to 147 °C.

Consider `N=C(N)NCCCCCCCCCCCNC(=N)NC(=O)c1nc(Cl)c(N)nc1N` (as salt: hydrochloride) [compound 23991, N-{11-[N′-(3,5-diamino-6-chloropyrazine-2-carbonyl)guanidino]-undecyl}guanidine dihydrochloride], for which the melting point was in the range of 151 to 153 °C.

With `N=C(NCCCCC1CCN(CCO)CC1)NC(=O)c1nc(Cl)c(N)nc1N` (as salt: hydrochloride) [compound 25193, N-(3,5-diamino-6-chloropyrazine-2-carbonyl)-N′-{4-[1-(2-hydroxyethyl)piperidin-4-yl]butyl}guanidine dihydrochloride], the melting point fell in the range of 168 to 170 °C.
